Reference: publication PMC8224742, “Evaluation of 1β-Hydroxylation of Deoxycholic Acid as a Non-Invasive Urinary Biomarker of CYP3A Activity in the Assessment of Inhibition-Based Drug–Drug Interaction in Healthy Volunteers” (Journal of Personalized Medicine, 2021)
“Also recorded” adds a separate entry of the source. Read-outs that look alike come from different tables or passages of the source. Marks after values point to notes of the source that are not given here.

Assays:
CYP3A [1] = assay: Oral MDZ (1.5 mg p.o.) plasma pharmacokinetics (MDZ and 1′-OH-MDZ) alone and after repeated inhibitor administration; settings: for 1’-OH-MDZ AUC0– (zero to infinity), MDZ alone / 1’-OH-MDZ AUClast, MDZ alone / 1’-OH-MDZ Cmax, MDZ alone / 1’-OH-MDZ T1/2, MDZ alone / 1’-OH-MDZ Tmax, MDZ alone / MDZ CL, MDZ alone: MDZ 1.5 mg p.o., geometric mean (90% CI)
Experimental: (§1) ITZ tablets (200 mg) were split equally in two, and 100 mg were given to subjects.
(§2) MDZ acted as a nested control in the evaluation of the endogenous urinary markers, and it was administered both orally (1.5 mg) and intravenously (i.v.; 1.0 mg). Participants were all treated the same way for the baseline and randomly split into 3 arms of 8–10 individuals each to evaluate the effect of the inhibitors. […] MDZ pharmacokinetic (PK) profiling and biomarker sampling was also conducted after the washout period and at the end of the study to determine whether enzyme activity returned to baseline levels. The subjects were their control. Treatment, washout and end of study values were compared with values at baseline.
(§3) Plasma concentrations of MDZ and its metabolite 1′-OH-MDZ were analysed using a validated LC-MS/MS method. Plasma samples were extracted using protein precipitation, where 300 µL of acetonitrile (ACN) containing 500 ng/mL diazepam as an internal standard (IS) was added to 100 µL of plasma. The mixture was then vortexed for 10 min, followed by centrifugation at 10,000× g for 5 min at a temperature of 4 °C. The supernatant was collected, and 5 µL were injected into the LC-MS/MS for analysis.
(§4) The mobile phase consisted of 10 mM ammonium formate in 5% methanol (MeOH) (A) and ACN (B). […] The column temperature was maintained at 40 °C. MDZ and 1′-OH-MDZ were detected on a Sciex 3200 mass spectrometer with a turbo ion spray interphase operated in positive ion mode at 5500 V, a temperature of 5000 °C; GS1 and GS2 at 50 and 60 psi, respectively; and a curtain gas flow of 25 psi. […] The quantification of the MDZ and 1′-OH-MDZ was performed using the Analyst software (version 1.2; Applied Biosystems).
(§5) Standard non-compartmental pharmacokinetic (PK) analysis was performed with the WinNolin program, version 4.1 (Pharsight Corp, Mountain View, CA, USA), using the linear up logarithmic down trapezoidal method. The plasma parameters that were assessed and used for the comparison with the urinary biomarker were MDZ clearance (MDZ CL) and the area under the plasma concentration-time curve (AUC) from zero to infinity (AUC0–inf) of MDZ. More PK parameters were evaluated for MDZ and 1′-OH-MDZ.
(§6) The difference between log-transformed treatment/baseline was calculated pairwise for each subject, as well as for their 90% confidence intervals (CIs). These differences and CIs were anti-log-transformed back for reporting purposes. The same analysis was performed for MDZ clearance and AUC0-inf before and after treatment for comparison.
(§7) The pharmacokinetic (PK) parameters of MDZ were performed by standard noncompartmental
(§8) methods using the WinNolin program, version 4.1 (Pharsight Corp, Mountain View, CA, USA).
(§9) were plotted as graphs of midazolam or 1-OH-midazolam concentration vs. time.

CYP3A [2] = assay: Intravenous MDZ (1.0 mg i.v.) plasma pharmacokinetics (MDZ and 1′-OH-MDZ) alone and after repeated inhibitor administration; settings: for 1’-OH-MDZ AUC0– (zero to infinity), MDZ alone / 1’-OH-MDZ AUClast, MDZ alone / 1’-OH-MDZ Cmax, MDZ alone / 1’-OH-MDZ T1/2, MDZ alone / 1’-OH-MDZ Tmax, MDZ alone: MDZ 1 mg i.v., geometric mean (90% CI)
Experimental: as §1, §2, §3, §4, §5, §6, §7, §8, §9

CYP3A [3] = tested on: CYP3A
Experimental: as §1, §2
Sample preparations for the analysis of 1β-OH-DCA and ToDCA in human urine were performed using a previously described method but without acid solvolysis [15, 20]. In brief, an aliquot of 50 µL of a 0.1 M Tris HCL buffer (pH 5) containing a mixture of hydrolysis enzymes (100 U/mL choloylglycine hydrolase, 200 µL/mL β-glucuronidase/arylsulfatase, and 100 U/mL sulfatase) was added to 50 µL of urine, followed by adding 50 µL of an aqueous solution containing 1 µM of (D4)-DCA and (D4)-1β-OH-DCA as IS. The mixture was incubated overnight at 37 °C at a shaking speed of 500 rpm for enzymatic hydrolysis of glucuronides, sulfates, and amino acid conjugates. The reaction mixture was then quenched with a 300 µL ACN-MeOH (1:1, v/v) solution followed by centrifugation at 4000× g, 4 °C for 20 min. The supernatant was separated and diluted with an equal volume of water for ultra-high-performance liquid chromatography-high resolution mass spectrometry (UPLC-HRMS) analysis. […]
References containing 10 µM G-DCA, T-DCA, G-1β-OH-DCA, T-1β-OH-DCA, CDCA-24-G, and DCA-3-S were also prepared in stripped urine and subjected to enzymatic hydrolysis to monitor the efficiency of enzymatic deconjugation. […] Therefore, the concentrations of DCA-3-S were also determined in urine and combined with free DCA to represent the total concentration of DCA, i.e., ToDCA. […]

CYP3A [4] = settings: human, in vivo, iv
Experimental: as §1, §2, §3, §4, §5, §6, §7, §8, §9

CYP3A [5] = settings: human, in vivo
Experimental: as §1, §2, §3, §4, §5, §6, §7, §8, §9

CYP3A [6] = settings: ITZ 200 mg od for 6 days; cited from earlier work
[7] = Oral MDZ (1.5 mg p.o.) plasma pharmacokinetics (MDZ and 1′-OH-MDZ) alone and after repeated inhibitor administration; settings: human, in vivo, po, 1.5 mg; for AUC: MDZ AUC0– (zero to infinity); for AUC / AUC(0-t) / Cmax / Tmax: MDZ alone; for AUC / AUC(0-t) / Cmax / half-life / Tmax: MDZ 1.5 mg p.o., geometric mean (90% CI); for AUC(0-t): MDZ AUClast; for Cmax: MDZ Cmax; for half-life: MDZ T1/2, MDZ alone; for Tmax: MDZ Tmax; for AUC(0-inf): Oral MDZ AUC0-inf, Baseline, MDZ 1.5 mg p.o. before inhibitor, geometric mean (range)
Experimental: as §1, §2, §3, §4, §5, §6, §7, §8, §9

[8] = Intravenous MDZ (1.0 mg i.v.) plasma pharmacokinetics (MDZ and 1′-OH-MDZ) alone and after repeated inhibitor administration; settings: human, in vivo, iv, 1 mg; for AUC: MDZ AUC0– (zero to infinity); for AUC(0-t): MDZ AUClast; for Cmax: MDZ Cmax; for half-life: MDZ T1/2, MDZ alone; for Tmax: MDZ Tmax; for AUC(0-inf): i.v. MDZ AUC0-inf
Experimental: as §1, §2, §3, §4, §5, §6, §7, §8, §9

[9] = repeated administration (APZ 1 mg od)
[10] = MDZ alone, MDZ 1 mg i.v., APZ arm (Table S1), geometric mean (90% CI)
[11] = MDZ alone, MDZ 1 mg i.v., FKZ arm (Table S2), geometric mean (90% CI)
[12] = MDZ alone, MDZ 1 mg i.v., ITZ arm (Table S3), geometric mean (90% CI)

OCc1ncc2n1-c1ccc(Cl)cc1C(c1ccccc1F)=NC2 [1’-OH-MDZ, 1′-hydroxymidazolam]
1’-OH-MDZ AUC0– (zero to infinity), MDZ alone (CYP3A [1]; APZ arm (Table S1)): 10.56 (6.77–16.48) ng·h/mL
1’-OH-MDZ AUClast, MDZ alone (CYP3A [1]; APZ arm (Table S1)): 8.23 (6.15–11.02) ng·h/mL
1’-OH-MDZ Cmax, MDZ alone (CYP3A [1]; APZ arm (Table S1)): 2.60 (2.13–3.18) ng/mL
1’-OH-MDZ T1/2, MDZ alone (CYP3A [1]; APZ arm (Table S1)): 2.54 (1.26–5.09) h
1’-OH-MDZ Tmax, MDZ alone (CYP3A [1]; APZ arm (Table S1)): 0.77 (0.65–0.91) h
1’-OH-MDZ AUC0– (zero to infinity), MDZ alone (CYP3A [1]; FKZ arm (Table S2)): 6.73 (3.77 – 12.01) ng·h/ml
1’-OH-MDZ AUClast, MDZ alone (CYP3A [1]; FKZ arm (Table S2)): 6.56 (3.6 – 11.94) ng·h/ml
1’-OH-MDZ Cmax, MDZ alone (CYP3A [1]; FKZ arm (Table S2)): 2.81 (1.61 – 4.92) ng/ml
1’-OH-MDZ T1/2, MDZ alone (CYP3A [1]; FKZ arm (Table S2)): 1.99 (1.32 – 3.0) h
1’-OH-MDZ Tmax, MDZ alone (CYP3A [1]; FKZ arm (Table S2)): 0.83 (0.56 – 1.21) h
1’-OH-MDZ AUC0– (zero to infinity), MDZ alone (CYP3A [1]; ITZ arm (Table S3)): 4.57 (3.04 – 6.88) ng·h/ml
1’-OH-MDZ AUClast, MDZ alone (CYP3A [1]; ITZ arm (Table S3)): 4.22 (2.8 -6.36) ng·h/ml
1’-OH-MDZ Cmax, MDZ alone (CYP3A [1]; ITZ arm (Table S3)): 2.29 (1.64 – 3.19) ng/ml
1’-OH-MDZ T1/2, MDZ alone (CYP3A [1]; ITZ arm (Table S3)): 1.34 (1.05 -1.7) h
1’-OH-MDZ Tmax, MDZ alone (CYP3A [1]; ITZ arm (Table S3)): 0.71 (0.63 – 0.80) h
1’-OH-MDZ AUC0– (zero to infinity), MDZ alone (CYP3A [2]; APZ arm (Table S1)): 4.49 (2.12–9.50) ng·h/mL
1’-OH-MDZ AUClast, MDZ alone (CYP3A [2]; APZ arm (Table S1)): 2.54 (1.49–4.35) ng·h/ml
1’-OH-MDZ Cmax, MDZ alone (CYP3A [2]; APZ arm (Table S1)): 1.24 (1.02–1.50) ng/mL
1’-OH-MDZ AUC0– (zero to infinity), MDZ alone (CYP3A [2]; FKZ arm (Table S2)): 3.31 (1.92 – 5.72) ng·h/ml
1’-OH-MDZ AUClast, MDZ alone (CYP3A [2]; FKZ arm (Table S2)): 2.56 (1.65 - 3.96) ng·h/ml
1’-OH-MDZ Cmax, MDZ alone (CYP3A [2]; FKZ arm (Table S2)): 1.09 (0.76 – 1.56) ng/ml
1’-OH-MDZ T1/2, MDZ alone (CYP3A [2]; FKZ arm (Table S2)): 2.30 (1.44 -3.65) h
1’-OH-MDZ Tmax, MDZ alone (CYP3A [2]; FKZ arm (Table S2)): 0.79 (0.69 – 0.90) h
1’-OH-MDZ AUC0– (zero to infinity), MDZ alone (CYP3A [2]; ITZ arm (Table S3)): 2.26 (1.5 – 3.41) ng·h/ml
1’-OH-MDZ AUClast, MDZ alone (CYP3A [2]; ITZ arm (Table S3)): 2.00 (1.41 – 3.01) ng·h/ml
1’-OH-MDZ Cmax, MDZ alone (CYP3A [2]; ITZ arm (Table S3)): 1.09 (0.87 – 1.35) ng/ml
1’-OH-MDZ T1/2, MDZ alone (CYP3A [2]; ITZ arm (Table S3)): 1.25 (0.8 – 1.95) h
1’-OH-MDZ Tmax, MDZ alone (CYP3A [2]; ITZ arm (Table S3)): 0.79 (0.69 -0.90) h

Cc1nnc2n1-c1ccc(Cl)cc1C(c1ccccc1)=NC2 [APZ, alprazolam]
effect on MDZ PK parameters (in words) (CYP3A [1]; [9]): no significant effect
effect on 1β-OH-DCA/ToDCA UMR (in words) (CYP3A [3]; [9]): No inhibition; also recorded: no significant effect

OC(Cn1cncn1)(Cn1cncn1)c1ccc(F)cc1F [FKZ, fluconazole]
1’-OH-MDZ T1/2, MDZ + inhibitor (CYP3A [4]): 2.25 (1.56 – 3.23) h
1’-OH-MDZ Tmax, MDZ + inhibitor (CYP3A [4]): 0.70 (0.59 – 0.83) h
1’-OH-MDZ T1/2, MDZ + inhibitor (CYP3A [5]; po): 1.71 (1 – 2.89) h
1’-OH-MDZ Tmax, MDZ + inhibitor (CYP3A [5]; po): 0.83 (0.68 – 1) h

CCC(C)n1ncn(-c2ccc(N3CCN(c4ccc(OCC5COC(Cn6cncn6)(c6ccc(Cl)cc6Cl)O5)cc4)CC3)cc2)c1=O (stereo not drawn) [ITZ, itraconazole]
i.v. MDZ CL, Treatment/Baseline (90%CI) (CYP3A [4]): 0.44 * (0.26–0.73)
Oral MDZ CL, Treatment/Baseline (90%CI) (CYP3A [5]): 0.30 ** (0.18–0.47)
decrease of oral MDZ CL from baseline (CYP3A [5]): 70%
time after completion of treatment at which 1β-OH-DCA/ToDCA ratio was fully restored to baseline (CYP3A [3]; after ITZ 100 mg od for 6 days): nine
fold increase in oral MDZ AUC (CYP3A [6]): 6.6 fold
reduced oral MDZ clearance (CYP3A [6]): 85%

Cc1ncc2n1-c1ccc(Cl)cc1C(c1ccccc1F)=NC2 [MDZ, midazolam]
Oral MDZ CL, Baseline (CYP3A [1]; APZ arm, MDZ 1.5 mg p.o. before inhibitor, geometric mean (range)): 59.1 (28.0–220.5) L/h
Oral MDZ CL, Baseline (CYP3A [1]; FKZ arm, MDZ 1.5 mg p.o. before inhibitor, geometric mean (range)): 59.8 (17.0–135.9) L/h
Oral MDZ CL, Baseline (CYP3A [1]; ITZ arm, MDZ 1.5 mg p.o. before inhibitor, geometric mean (range)): 126 (46.7–648.8) L/h
MDZ CL, MDZ alone (CYP3A [1]; APZ arm (Table S1)): 137.34 (101–186) L/h
MDZ CL, MDZ alone (CYP3A [1]; FKZ arm (Table S2)): 77.41 (56.44 – 106.19) L/h
MDZ CL, MDZ alone (CYP3A [1]; ITZ arm (Table S3)): 155.58 L/h
AUC(0-inf) (CYP3A [1]; human, in vivo, po, 1.5 mg, Oral MDZ AUC0-inf, Baseline, ITZ arm, MDZ 1.5 mg p.o. before inhibitor, geometric mean (range)): 10.8 ng·h/mL
AUC ([7]; APZ arm (Table S1)): 10.6 ng·h/mL
AUC ([7]; FKZ arm (Table S2)): 19.4 ng·h/mL
AUC ([7]; ITZ arm (Table S3)): 9.64 ng·h/mL
AUC(0-t) ([7]; APZ arm (Table S1)): 10.4 ng·h/mL
AUC(0-t) ([7]; FKZ arm (Table S2)): 18.5 ng·h/mL
AUC(0-t) ([7]; ITZ arm (Table S3)): 8.61 ng·h/mL
Cmax ([7]; APZ arm (Table S1)): 4.13 ng/mL
Cmax ([7]; FKZ arm (Table S2)): 6.18 ng/mL
Cmax ([7]; ITZ arm (Table S3)): 4.86 ng/mL
half-life ([7]; APZ arm (Table S1)): 1.63 h
half-life ([7]; FKZ arm (Table S2)): 2.26 h
half-life ([7]; ITZ arm (Table S3)): 1.43 h
Tmax ([7]; APZ arm (Table S1)): 0.76 h
Tmax ([7]; FKZ arm (Table S2)): 0.79 h
Tmax ([7]; ITZ arm (Table S3)): 0.63 h
AUC(0-inf) ([7]; APZ arm): 10.6 ng·h/mL
AUC(0-inf) ([7]; FKZ arm): 22.7 ng·h/mL
AUC(0-inf) (CYP3A [2]; human, in vivo, iv, 1 mg, i.v. MDZ AUC0-inf, Baseline, ITZ arm, MDZ 1.0 mg i.v. before inhibitor, geometric mean (range)): 12.1 ng·h/mL
clearance (CYP3A [2]; human, in vivo, iv, 1 mg, i.v. MDZ CL, Baseline, ITZ arm, MDZ 1.0 mg i.v. before inhibitor, geometric mean (range)): 1380 mL/min
AUC [8, 10]: 16.8 ng·h/mL
AUC [8, 11]: 12.4 ng·h/mL
AUC [8, 12]: 13.5 ng·h/mL
AUC(0-t) [8, 10]: 16.6 ng·h/mL
AUC(0-t) [8, 11]: 12 ng·h/mL
AUC(0-t) [8, 12]: 12.9 ng·h/mL
clearance ([8]; MDZ CL, MDZ alone, MDZ 1 mg i.v., APZ arm (Table S1), geometric mean (90% CI)): 998 mL/min
clearance ([8]; MDZ CL, MDZ alone, MDZ 1 mg i.v., FKZ arm (Table S2), geometric mean (90% CI)): 1350 mL/min
clearance ([8]; MDZ CL, MDZ alone, MDZ 1 mg i.v., ITZ arm (Table S3), geometric mean (90% CI)): 1230 mL/min
Cmax [8, 10]: 26 ng/mL
Cmax [8, 11]: 22.6 ng/mL
Cmax [8, 12]: 25 ng/mL
half-life ([8]; MDZ 1 mg i.v., APZ arm (Table S1), geometric mean (90% CI)): 2.06 h
half-life ([8]; MDZ 1 mg i.v., FKZ arm (Table S2), geometric mean (90% CI)): 1.55 h
half-life ([8]; MDZ 1 mg i.v., ITZ arm (Table S3), geometric mean (90% CI)): 2.32 h
Tmax [8, 10]: 0.29 h
Tmax [8, 12]: 0.28 h
AUC(0-inf) ([8]; Baseline, APZ arm, MDZ 1.0 mg i.v. before inhibitor, geometric mean (range)): 16.8 ng·h/mL
AUC(0-inf) ([8]; Baseline, FKZ arm, MDZ 1.0 mg i.v. before inhibitor, geometric mean (range)): 12.4 ng·h/mL
clearance ([8]; i.v. MDZ CL, Baseline, APZ arm, MDZ 1.0 mg i.v. before inhibitor, geometric mean (range)): 993 mL/min
clearance ([8]; i.v. MDZ CL, Baseline, FKZ arm, MDZ 1.0 mg i.v. before inhibitor, geometric mean (range)): 1350 mL/min
